Results as given in patent US20110123530A1, “COMPOSITIONS AND METHODS FOR TREATING AND DIAGNOSING ASTHMA” (priority 2008, published 2011).

How the values were obtained:
[1] = tested on: healthy and asthmatic subjects; test: Methacholine challenge testing (PC20, airway hyper-responsiveness); format: in vivo, human; details: median
Experimental: (§1) (A) Volume of air exhaled in the first second of a forced expiration (FEV1), a measure of airway obstruction. (B) Improvement in FEV1 after 4 puffs (360 μg) of albuterol (bronchodilator reversibility testing). (C) Provocative concentration of methacholine required to induce a 20% decline in FEV1 (PC20), a measure of airway hyper-responsiveness.
Healthy controls (N=27) had no history of lung disease and lacked airway hyper-responsiveness (PC20 methacholine >16 mg/mL). Certain studies included current smokers without asthma (N=16). Exclusion criteria for all subjects included upper respiratory tract infection in the previous 4 weeks, asthma exacerbation within 6 weeks and current use of salmeterol, astemizole, nedocromil sodium, sodium cromoglycate, methlyxanthines, montelukast or zafirlukast. Subjects underwent baseline evaluation by study physicians (including spirometry and methacholine challenge testing as described previously). Subjects also underwent allergen skin prick testing (ASPT) with a panel of 12 aeroallergens, a positive control and a negative control (Table 6).
The minimal concentration of methacholine in mg/ml required to induce a decrease in FEV1 of 20% (PC20, measured at a screening visit one week prior to bronchoscopy) is a measure of bronchial hyperresponsiveness. This is a measure of bronchial hyper-reactivity (BHR).
(§2) The asthmatic subjects were further analyzed with respect to additional demographic characteristics and clinical features as those described in Example 7. […] This difference in AHR was apparent despite inclusion criteria that required all asthmatics to have significant AHR (all asthmatics <8 mg/ml, all healthy controls >20 mg/ml).

[2] = tested on: healthy and asthmatic subjects; test: Bronchodilator reversibility testing: improvement in FEV1 after albuterol; format: in vivo, human; details: 4 puffs (360 μg) of albuterol, mean ± SD
Experimental: as §1
For the purposes of identifying subsets of patients with asthma who differ with respect to the molecular mechanism underlying their airway inflammation and the distinct inflammatory, pathological and clinical phenotypes characteristic of these subsets, we first conducted new analyses on our previously generated epithelial cell microarray data, and we then supplemented these new analyses with review of additional and detailed clinical characterization data (including data on bronchodilator reversibility and allergen skin test reactivity) from these same subjects and newly generated data, including: (i) gene expression profiles in homogenates of bronchial biopsies and alveolar macrophages; (ii) quantitative measures of subepithelial collagen and airway epithelial mucin in bronchial biopsies; (iii) total and differential cell counts in BAL.
as §2

Compound | Methacholine PC20 (provocative concentration required to cause a 20% decline in FEV1) ([1]; Healthy Control) | Methacholine PC20 (provocative concentration required to cause a 20% decline in FEV1) ([1]; asthma, IL13 Signature Low) | Methacholine PC20 (provocative concentration required to cause a 20% decline in FEV1) ([1]; asthma, IL-13 Signature High) | ΔFEV1 with albuterol (% of baseline) ([2]; Healthy Control) | ΔFEV1 with albuterol (% of baseline) ([2]; asthma, IL13 Signature Low) | ΔFEV1 with albuterol (% of baseline) ([2]; asthma, IL-13 Signature High)
CC(=O)OC(C)C[N+](C)(C)C (stereo not drawn) [Methacholine, methacholine] | 64 mg/mL | 0.93 mg/mL | 0.27 mg/mL | – | – | –
CC(C)(C)NCC(O)c1ccc(O)c(CO)c1 (stereo not drawn) [albuterol] | – | – | – | 2.7 ± 3.4% of baseline | 9.7 ± 7.4% of baseline | 12.5 ± 9.8 % of baseline
